The results in this text go back to patent US8309745B2, “Epigallocatechin dimers or trimers having lipase inhibitory activity and/or antioxidant activity” (Suntory Holdings Limited, priority 2004, dated 2012).

One assay has as its target T1, swine pancreatic lipase (Sus scrofa, UniProt P00591).
T1 construct: purchased Sigma
T1 sequence (P00591 1-450): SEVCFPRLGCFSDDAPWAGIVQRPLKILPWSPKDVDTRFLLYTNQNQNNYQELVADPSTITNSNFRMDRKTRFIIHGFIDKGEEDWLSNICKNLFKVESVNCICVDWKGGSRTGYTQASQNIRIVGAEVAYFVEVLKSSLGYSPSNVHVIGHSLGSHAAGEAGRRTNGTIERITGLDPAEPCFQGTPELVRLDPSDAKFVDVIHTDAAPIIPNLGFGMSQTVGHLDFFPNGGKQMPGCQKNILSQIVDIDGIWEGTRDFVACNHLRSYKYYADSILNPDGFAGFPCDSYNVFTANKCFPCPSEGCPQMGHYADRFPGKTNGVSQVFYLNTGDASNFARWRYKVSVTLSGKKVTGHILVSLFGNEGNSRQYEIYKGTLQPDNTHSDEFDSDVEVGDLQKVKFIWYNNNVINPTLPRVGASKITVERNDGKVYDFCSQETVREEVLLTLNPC
As to the kind of experiment: Measurement of lipase inhibitory activity (4-UMO fluorescence assay). As to conditions: for IC50: swine pancreatic lipase, 4-UMO substrate, pH 8.0, 30-minute reaction, read-out: Lipase Inhibitory Activities of Various Polyphenols IC50; for lipase inhibitory activity compared with EGCG: in words. The class given is biochemical. An excerpt: Lipase inhibitory activity can be measured by any one of the lipase activity assays that are described in the prior applications mentioned in the Background Art. As for inhibitory activity against pancreatic lipase, an oleic ester of fluorescent 4-methylumbelliferone may be used as a substrate to measure the fluorescence from 4-methylumbelliferone that is formed by reaction with the lipase. The amount of a sample that provides 50% inhibition of lipase activity (IC50) may be substituted to express lipase inhibitory activity in accordance with the usual method.
For lipase activity measurement, an oleic ester of fluorescent 4-methylumbelliferone (4-UMO) was used as a substrate and the fluorescence from 4-methylumbelliferone formed by enzyme reaction was measured.
The buffer used in the measurement was 13 mM tris-HCl (pH 8.0) containing 150 mM NaCl and 1.36 mM CaCl2. The substrate 4-UMO (product of Sigma-Aldrich Co.) was prepared as 0.1 M solution in DMSO and then diluted 1,000-fold with the buffer. The lipase subjected to enzyme measurement was swine pancreatic lipase (product of Sigma) that had been diluted to a concentration of 400 U/ml with the buffer.
To start the enzyme reaction, 50 μl of buffered 4-UMO solution and 25 μl of distilled water (or an aqueous solution of sample) were loaded and mixed on a 96-well microplate and 25 μl of the buffered lipase solution was then added. After 30-minute reaction, 100 μl of 0.1 M citrate buffered solution (pH 4.2) was added to quench the reaction and the fluorescence from 4-methylumbelliferone (excitation wavelength: 355 nm; fluorescence wavelength: 460 nm), which was generated by the reaction, was measured with a fluorescence plate reader (Fluoroskan Asent CF: product of Labsystems).
The inhibitory activity of the test sample was determined as its amount that would provide 50% inhibition of lipase activity (IC50 in μl) compared to the activity of the control (distilled water).
The lipase inhibitory activities of six compounds (dimers of OHBFs and their trimer), as well as epigallocatechin gallate (EGCG) were measured in accordance with Example 1 and the results are shown in Table 1.

A short description of assay [1]: Superoxide anion radical scavenging activity (hypoxanthine-xanthine oxidase reaction, ESR with DMPO). As to conditions: O2- generated by hypoxanthine-xanthine oxidase, DMPO trapping agent. As to the method: The superoxide anion radical scavenging activity was measured by the method to be described in Example 5. Briefly, O2^− was generated by means of hypoxanthine-xanthine oxidase reaction and 5,5-dimethyl-1-pyrrolin-N-oxide was used as a trapping agent to perform measurement by ESR. Measurements were conducted in the presence or absence of compounds of the present invention and the results were expressed as IC50 or the amount of a sample that provided 50% suppression of O2^− generation.
Evaluation was made of the activity for scavenging superoxide anion radicals generated by hipoxanthine-xanthine oxidase reaction, a kind of active oxygen.
After preparing (1) 2 mM hypoxanthine solution (dissolved in 0.1 M phosphate buffered solution at pH 7.4) and (2) 5.5 mM diethylenetriamine-pentaacetic acid (dissolved in 0.1 M phosphate buffered solution at pH 7.4), 5.0 ml of the solution (1), 3.5 ml of the solution (2), and 1.5 ml of 5,5-dimethyl-1-pyrrolin-N-oxide (DMPO, product of LABOTECH) were mixed to make reagent 1. A 50-μl portion of reagent 1 was put in a 1.5-ml microtube and incubated at 37° C. for 4 minutes. To the incubated reagent 1, a methanol solution of the sample was added in an amount of 20 μl and then 50 μl of xanthine oxidase (0.4 units/ml) was added, followed by stirring for 10 seconds. The reaction mixture was injected into a hematocrit tube, which was set in an ESR apparatus and sweeping in a magnetic field was started 60 seconds after addition of xanthine oxidase. The conditions of ESR measurement were as follows: Power, 4 mW; C. Field, 335.5 mT, SwWid (±), 5 mT; SwTime, 1 min; ModWid, 0.1 mT; Amp, 160; TimeC, 0.1 sec; Temperature, 20° C.
Among the ESR signals from DMPO-OOH, the signal of the lowest field strength was compared in height to the internal standard Mn^2+ signal and the ratio (S/M) was assumed to represent the amount of O2^− and the O2^− scavenging activity was calculated by the following formula: O2^− scavenging activity(%)=100−{100×(S/M in the presence of the sample)/(S/M in the absence of the sample)} Results: […]

On to `Oc1cc([C@H]2Oc3cc(O)c(Cc4c(O)cc(O)c5c4O[C@H](c4cc(O)c(O)c(O)c4)[C@H](O)C5)c(O)c3C[C@H]2O)cc(O)c1O` [Didesgalloyl oolong homobisflavan B (6), didesgalloyl oolong homobisflavan B], for which, at swine pancreatic lipase, the half-maximal inhibitory concentration (IC50) was 2.08 µM. In assay [1], `O=C(O[C@@H]1Cc2c(O)cc(O)cc2O[C@@H]1c1cc(O)c(O)c(O)c1)c1cc(O)c(O)c(O)c1` [Epigallocathechin 3-O-gallate (7), (−)-epigallocatechin-3-O-gallate, reference compound] showed an IC50 of 14 µM. `O=C(O[C@@H]1Cc2c(O)cc(O)c(Cc3c(O)cc(O)c4c3O[C@H](c3cc(O)c(O)c(O)c3)[C@H](OC(=O)c3cc(O)c(O)c(O)c3)C4)c2O[C@@H]1c1cc(O)c(O)c(O)c1)c1cc(O)c(O)c(O)c1` [Oolong homobisflavan A (1), oolong homobisflavan A]: the IC50 at swine pancreatic lipase was 0.049 µM. Take `O=C(O[C@@H]1Cc2c(cc(O)c(Cc3c(O)cc(O)c4c3O[C@H](c3cc(O)c(O)c(O)c3)[C@H](OC(=O)c3cc(O)c(O)c(O)c3)C4)c2O)O[C@@H]1c1cc(O)c(O)c(O)c1)c1cc(O)c(O)c(O)c1` [Oolong homobisflavan B (2), oolong homobisflavan B]: the IC50 on swine pancreatic lipase turned out to be 0.108 µM.

In assay [1], `O=C(O[C@@H]1Cc2c(cc(O)c(Cc3c(O)cc4c(c3O)C[C@@H](OC(=O)c3cc(O)c(O)c(O)c3)[C@@H](c3cc(O)c(O)c(O)c3)O4)c2O)O[C@@H]1c1cc(O)c(O)c(O)c1)c1cc(O)c(O)c(O)c1` [Oolong homobisflavan C (3), oolong homobisflavan C] came in with a 50% inhibitory concentration (IC50) of 6.2 µM. For the same molecule, on swine pancreatic lipase, the “lipase inhibitory activity compared with EGCG” value was “potent lipase inhibitory activity compared with EGCG” and the IC50 is 0.097 µM. As for `O=C(O[C@@H]1Cc2c(O)cc(O)c(Cc3c(O)c(Cc4c(O)cc(O)c5c4O[C@H](c4cc(O)c(O)c(O)c4)[C@H](OC(=O)c4cc(O)c(O)c(O)c4)C5)c4c(c3O)C[C@@H](OC(=O)c3cc(O)c(O)c(O)c3)[C@@H](c3cc(O)c(O)c(O)c3)O4)c2O[C@@H]1c1cc(O)c(O)c(O)c1)c1cc(O)c(O)c(O)c1` [Trimer (4)], the values for the IC50 (in assay [1]; at swine pancreatic lipase) were 10.1 µM and 0.129 µM, respectively. The “lipase inhibitory activity compared with EGCG” value at swine pancreatic lipase is on record as “potent lipase inhibitory activity compared with EGCG”. `O=C(O[C@@H]1Cc2c(O)cc(O)c(Cc3c(O)cc(O)c4c3O[C@H](c3cc(O)c(O)c(O)c3)[C@H](O)C4)c2O[C@@H]1c1cc(O)c(O)c(O)c1)c1cc(O)c(O)c(O)c1` [monodesgalloyl oolong homobisflavan A]: the IC50 at swine pancreatic lipase was found to be 0.271 µM.

In general, IC50 refers to the concentration needed to halve the response being measured.
